From US7173007B1, “Therapy for microbial infections” (The Regents of the University of California, priority 2003, dated 2007)

How the values were obtained:
MRSA (ATCC 33591) = assay: Radial diffusion (inhibition zone) assay; type: cell-based, Staphylococcus aureus; conditions: MRSA (Gram-positive)
Protocol: (§1) FIGS. 3A–C show Growth inhibition of MRSA, E. coli, and P. aeruginosa by cathelin-like protein. (a) Inhibition zone ssay on tryptone/agarose plates with MRSA. Clear circles show lack of bacterial growth. Lanes 1, 3, 5, bottom row: cathelin-like protein at […], 16 μM, respectively. Lane 2, top row:[…] of His-tagged cathelin-like protein before cleavage. Lane 4, top: enterokinase enzyme alone. All assays were performed in duplicate and repeated three times. (b), (c) CFU assay: growth inhibition of (b) MRSA and (c) E. coli, cultured in 10 mM phosphate and 1% TSB (pH 7.4) and then supplemented with different concentrations of human cathelin-like protein.
Antimicrobial assays. E. coli (ATCC 25922), Pseudomonas aeruginosa (ATCC 8427), Salmonella typhimurium (ATCC 13311), Proteus vulgaris (ATCC 8427), Staphylococcus epidermidis (ATCC 12228), and MRSA (ATCC 33591) isolates were maintained on trypticase soy broth (TSB) agar plates. Individual colonies were selected and cultured overnight in TSB, subcultured once at 1:50 in fresh TSB, and then grown to stationary phase for use in all experiments. The radial diffusion assay was performed in 0.5% agarose and 0.75% tryptone brought to ebullition and cooled to 43° C., and then mixed with […] of bacterial suspension and poured into a 10 cm Petri dish. […]

E. coli (ATCC 25922) = assay: Radial diffusion (inhibition zone) assay; type: cell-based
Protocol: (§2) Antimicrobial assays. E. coli (ATCC 25922), Pseudomonas aeruginosa (ATCC 8427), Salmonella typhimurium (ATCC 13311), Proteus vulgaris (ATCC 8427), Staphylococcus epidermidis (ATCC 12228), and MRSA (ATCC 33591) isolates were maintained on trypticase soy broth (TSB) agar plates. Individual colonies were selected and cultured overnight in TSB, subcultured once at 1:50 in fresh TSB, and then grown to stationary phase for use in all experiments. The radial diffusion assay was performed in 0.5% agarose and 0.75% tryptone brought to ebullition and cooled to 43° C., and then mixed with […] of bacterial suspension and poured into a 10 cm Petri dish. A series of small wells (diameter, 3 mm) were punched in the plate after the agarose solidified. Two microliters of test samples were applied in each well. Plates were incubated at 37° C. overnight to allow visible growth of bacteria. Antibacterial activity was indicated by the clear zone (no bacterial growth) around the well.
(§3) Antimicrobial activity of recombinant cathelin-like protein. Recombinant cathelicidins were tested for antimicrobial activity using a standard radial diffusion assay. Different concentrations of the cathelin-like protein were loaded into wells on assay plates containing Gram-positive MRSA, S. epidermidis, and strains of the Gram-negative bacterial species E. coli, S. enteritidis, P. vulgaris, and P. aeruginosa. […] Similarly, cathelin-like protein inhibited growth of S. epidermidis ([…]) but not S. enteritidis or P. vulgaris.

[1] = test system: Pseudomonas aeruginosa (ATCC 8427); assay: Radial diffusion (inhibition zone) assay; type: cell-based; conditions: P. aeruginosa
Protocol: as §2, §3

S. enteritidis = assay: Radial diffusion (inhibition zone) assay; type: cell-based
Protocol: as §2, §3

[2] = test system: Staphylococcus epidermidis (ATCC 12228); assay: Radial diffusion (inhibition zone) assay; type: cell-based; conditions: S. epidermidis (Gram-positive)
Protocol: as §2, §3

E. coli = assay: Colony-forming assay (CFU), liquid phase; type: cell-based; parameters: unit of the concentration uncertain; conditions: 3 (unit uncertain), 10 mM phosphate, 1% TSB, pH 7.4
Protocol: as §1
(§4) The colony-forming assay (CFU) was performed. Bacterial cultures (E. coli or MRSA) were collected at the logarithmic phase of growth in TSB, washed twice with phosphate-buffered saline, pH 7.4, and diluted to 104 CFU per ml in 10 mM phosphate buffer, pH 7.4, Na2HPO4/NaH2PO4-1% TSB (g per 1). Forty-five microliters of bacterial suspension were mixed with […] of H2O (control) or with […] of different concentrations of cathelin-like proteins, and the mixture was incubated at 37° C. Every 30 min, a […] aliquot of the reaction mixture was plated directly onto a TSB agar plate and then incubated at 37° C. overnight for enumeration of CFU. Data are reported as growth index=final CFU/CFU in initial inoculum. […]

MRSA = assay: Colony-forming assay (CFU), liquid phase; type: cell-based, Staphylococcus aureus; conditions: 10 mM phosphate, 1% TSB, pH 7.4
Protocol: as §1, §4

With CRAMP [reference compound] the “growth inhibition” value (MRSA (ATCC 33591)) was “inactive”, the “growth inhibition” value (E. coli (ATCC 25922)) was “highly active” and the “growth inhibition” value [1] was “highly active”. The “growth inhibition” value (S. enteritidis) was “highly active” and the “growth inhibition” value [2] was “inactive”.

With “LL-37: C-terminal 37 amino acid mature antimicrobial peptide of human hCAP18 (LLGDFFRKSKEKIGKEFKRIVQRIKDFLRNLVPRTES) [reference compound]” the “growth inhibition” value (MRSA (ATCC 33591)) was “inactive”, the “growth inhibition” value (E. coli (ATCC 25922)) was “highly active” and the “growth inhibition” value [1] was “highly active”. The “growth inhibition” value (S. enteritidis) was “highly active”, the “growth inhibition” value [2] was “inactive” and the “effect on growth (CFU)” value (E. coli) was “bactericidal”. For the same substance, the “effect on growth (CFU)” value (MRSA) was “no effect”.
